Values joined by “and” are separate entries in the source; they are usually repeats but may differ in a detail not shown here. Identical values can stand only once.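 Following 48 hours of exposure in 96-well plates, responses at five concentrations were used to interpolate endpoints linearly. GI50 is the concentration that inhibits growth by half. TGI: total growth inhibition.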
Key:
Experiment in all cases: NCI-60 cell line screen, 48 h
[1] = system: A498 renal
[2] = system: CAKI-1 renal
[3] = system: CCRF-CEM leukemia
[4] = system: DU-145 prostate
[5] = system: HOP-92 NSCLC
[6] = system: HS 578T breast
[7] = system: HT29 colon
[8] = system: SK-OV-3 ovarian
[9] = system: T-47D breast
[10] = system: UACC-62 melanoma

| Structure (SMILES) | GI50 [1] | TGI [1] | GI50 [2] | TGI [2] | GI50 [3] | TGI [3] | GI50 [4] | TGI [4] | GI50 [5] | TGI [5] | GI50 [6] | TGI [6] | GI50 [7] | TGI [7] | GI50 [8] | TGI [8] | GI50 [9] | TGI [9] | GI50 [10] | TGI [10] |
| --- | --- | --- | --- | --- | --- | --- | --- | --- | --- | --- | --- | --- | --- | --- | --- | --- | --- | --- | --- | --- |
| CCOc1nccc2c1nc(-c1nonc1N)n2CC | 24.5 µM | > 25 µM | > 25 µM | > 25 µM | > 25 µM | > 25 µM | > 25 µM | > 25 µM | 1.17 µM | > 25 µM | > 25 µM | > 25 µM | > 25 µM | > 25 µM | > 25 µM | > 25 µM | > 25 µM | > 25 µM | > 25 µM | > 25 µM |
| COc1cc(NC(=O)NCc2ccco2)ccc1-c1ccc(NC(=O)NCc2ccco2)cc1OC | 1.72 µM | 8.25 µM | 10.1 µM | > 100 µM | 16.8 µM | > 100 µM | 3.01 µM | > 100 µM | 2.67 µM | 7.76 µM | 1.51 µM | 6.86 µM |  |  | 2.49 µM | 19.7 µM | 2.38 µM | > 100 µM | 1.25 µM | 5.18 µM |
| NCCCN1CCN(CCCNc2nc3ccccc3c3[nH]c4ccccc4c23)CC1 | 1.62 µM | 3.93 µM | 0.414 µM | 3.45 µM | 0.385 µM |  | 0.299 µM | 7.83 µM | 0.346 µM | 2.1 µM | 0.521 µM | 2.89 µM | 0.212 µM | 1.99 µM | 6.7 µM | 41.4 µM | 0.561 µM | 6.85 µM | 0.541 µM | 1.1 µM |
| COc1ccc(Cn2cc3c(c2-c2cc(OC)c(OC)c(OC)c2)CCc2cnoc2-3)cc1N | 0.0239 µM | 0.524 µM | 0.0319 µM | > 100 µM | 0.0384 µM |  | 0.0343 µM | 0.355 µM | 4.58 µM | > 100 µM | 0.0343 µM | > 100 µM | 0.307 µM | 1.71 µM | 0.0447 µM | > 100 µM | 0.034 µM | > 100 µM | 0.0447 µM | > 86.9 µM |
| CCC1(NC(=O)c2cc(F)c(F)c(F)c2F)C(=O)NC(=O)N(C(C)C)C1=O (stereo not given) | 23.5 µM | 53 µM | 29.8 µM | > 100 µM | 19.8 µM | 75.3 µM | 33.7 µM | > 100 µM | 17.4 µM | 63.7 µM | 12 µM | 37.2 µM | 22.6 µM | > 100 µM | 23.2 µM | 51.1 µM | > 100 µM | > 100 µM | 15.7 µM | 34.1 µM |
| CC(C)C[C@H](NC(=O)[C@@H](NC(=O)c1cccc(-c2ccccc2)n1)[C@@H](C)O)B(O)O | 0.00247 µM | 0.0061 µM and < 0.0178 µM | 0.0146 µM and < 0.0174 µM |  |  | > 5.16 µM | 0.0077 µM | 1.81 µM | 0.0209 µM | 0.119 µM | 0.00404 µM and < 0.0107 µM | > 100 µM | 0.00396 µM | 0.0233 µM and 0.046 µM | 0.0474 µM and 0.0325 µM | 7.82 µM | 0.00506 µM | 0.0231 µM | 0.00558 µM and < 0.0111 µM | 0.0311 µM and 0.0412 µM |
| COc1c(Cl)ccc2c(-c3nc4cc(Cl)c(F)cc4s3)cc(=O)oc12 | 17.6 µM | 36 µM | 1.98 µM |  |  |  | 13.9 µM | 39.9 µM | 1.77 µM | 4.07 µM | 26.8 µM | > 100 µM | 2.76 µM | 6.54 µM | 7.03 µM | 19.9 µM | 13 µM | 45.5 µM | 16.5 µM | 53.7 µM |
| N#C/C(=C\c1c(-c2ccccc2)[nH]c2ccccc12)C(=O)c1ccccc1 | 15.3 µM | > 100 µM | 2.45 µM | > 100 µM | 7.27 µM | > 100 µM | 5.22 µM | > 100 µM | 4.51 µM | 28.7 µM | 6.26 µM | 40.5 µM | 3.41 µM | > 100 µM | 15.2 µM | > 100 µM | 5.27 µM | > 100 µM | 3.6 µM | > 100 µM |
| COC(=O)[C@]12CC[C@@H](C)[C@H](C)[C@@H]1C1=CC[C@@H]3[C@@]4(C)C(C=O)=C[C@@](C)(COS(C)(=O)=O)C4[C@H](O)C[C@@]3(C)[C@]1(C)CC2 (stereo not given in full) | 3.74 µM | 16 µM | 2.05 µM | 5.58 µM | 0.782 µM | 3.22 µM | 1.69 µM | 3.41 µM | 2.39 µM | 5.56 µM | 3.12 µM | 8.77 µM | 1.64 µM | 3.5 µM | 4.08 µM | 16.2 µM | 1.8 µM | 5.93 µM | 1.66 µM | 3.96 µM |
| Clc1ccc(CNc2nccc(-c3cnn4ncccc34)n2)cc1 | 5.07 µM | 10.4 µM | 5.62 µM | > 18.8 µM | 9.69 µM | > 25 µM | 8.73 µM | > 25 µM |  |  | 7.78 µM | > 23.5 µM | 6.46 µM | 21.1 µM | 11.8 µM | > 25 µM | 5.26 µM | > 25 µM | 3.74 µM | 8.73 µM |
| O=S(=O)(NC1=NCCN1C(=S)SN1CCn2c1nsc2=S)c1ccccc1Cl | 24.6 µM | 59 µM | 12.3 µM | 41.6 µM |  |  | 9.15 µM | 53.1 µM | 11 µM | 89.7 µM | 29.6 µM | > 100 µM | 15.4 µM | > 100 µM | 57 µM | > 100 µM | 17 µM | > 100 µM | 19.3 µM | 44.1 µM |
| Nc1cc(S(N)(=O)=O)ccc1SSc1ccc(S(N)(=O)=O)cc1N |  | > 100 µM |  | > 100 µM |  |  |  | > 100 µM |  | > 100 µM |  | > 100 µM |  | > 100 µM |  | > 100 µM |  | > 100 µM |  | > 100 µM |
| CN(C)CCSCCO |  | > 100 µM |  | > 100 µM |  |  |  | > 100 µM |  | > 100 µM |  | > 100 µM |  | > 100 µM |  | > 100 µM |  | > 100 µM |  | > 100 µM |

From PubChem BioAssay (NCI)
